17 molecules from US9839642B2, “Beta-tetrazolyl-propionic acids as metallo-beta-lactamase inhibitors” (priority 2014, dated 2017) can be followed below.

Test [1] has as its target IMP-1 (Serratia marcescens, UniProt P52699). The test is described as follows: Enzyme activity: determination of IC50, fluorescence assay with CCF2-FA substrate. Type of test: biochemical. The conditions noted are these: enzyme 2 pM, CCF2-FA 1.25 μM, 2 hours at 25° C.; read-out: IMP1 IC50. Put shortly:
(§1)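 Final enzyme levels differed by target: 1 pM NDM-1, 2 pM IMP-1, 30 pM VIM-1. Each was incubated 2 hours at 25° C with test compound and 1.25 μM CCF2-FA, and 460 nm fluorescence (405 nm excitation) was fitted by 4-parameter curve to obtain IC50.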

The target in test [2] is NDM-1 (Klebsiella pneumoniae, UniProt C7C422). Described as above. Type of test: biochemical. As to conditions: enzyme 1 pM, CCF2-FA 1.25 μM, 2 hours at 25° C.; read-out: NDM1 IC50. Put shortly: as §1
In test [3] the target is VIM-1 (Pseudomonas aeruginosa, UniProt A0A0F7KYQ8). Described as above. Type of test: biochemical. The conditions noted are these: enzyme 30 pM, CCF2-FA 1.25 μM, 2 hours at 25° C.; read-out: VIM1 IC50. The essentials: as §1
Test [4] concerns Escherichia coli expressing NDM-1 (CLB30016). The test is described as follows: Antibiotic potentiation activity: synergistic concentration (MITC95) with imipenem, growth by OD600. Type of test: cell-based. As to conditions: 95% inhibition of bacterial growth, strain CLB30016. The essentials:
(§2)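 Colonies from overnight agar plates (35 °C) were suspended in saline and diluted 1:100 into 1.1× CAMHB. Inhibitor (final 200 μM to 0.195 μM) was combined with imipenem at 1 or 4 μg/ml, incubated 22–24 h at 35 °C, and absorbance read; MITC95 is the lowest inhibitor concentration giving 95% growth inhibition.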

In test [5] the test system is Klebsiella pneumoniae expressing VIM-1 (IHMA599644). The test is described as above. Type of test: cell-based. The conditions noted are these: 95% inhibition of bacterial growth, strain IHMA599644. Put shortly: as §2
In test [6] the test system is Serratia marcescens expressing IMP-1 (CL5741). The test is described as above. Type of test: cell-based. The conditions noted are these: 95% inhibition of bacterial growth, strain CL5741. Put shortly:
as §2

IMP-1, sequence (P52699 19-246, looked up, species assumed): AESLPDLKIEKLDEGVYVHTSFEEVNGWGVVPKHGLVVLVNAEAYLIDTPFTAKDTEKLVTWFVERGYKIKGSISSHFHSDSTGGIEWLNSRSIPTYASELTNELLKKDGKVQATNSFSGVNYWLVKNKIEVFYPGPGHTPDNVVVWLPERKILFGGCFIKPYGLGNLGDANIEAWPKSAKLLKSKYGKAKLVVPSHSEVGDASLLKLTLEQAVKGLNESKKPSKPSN
NDM-1, sequence (C7C422 29-270, looked up, species assumed): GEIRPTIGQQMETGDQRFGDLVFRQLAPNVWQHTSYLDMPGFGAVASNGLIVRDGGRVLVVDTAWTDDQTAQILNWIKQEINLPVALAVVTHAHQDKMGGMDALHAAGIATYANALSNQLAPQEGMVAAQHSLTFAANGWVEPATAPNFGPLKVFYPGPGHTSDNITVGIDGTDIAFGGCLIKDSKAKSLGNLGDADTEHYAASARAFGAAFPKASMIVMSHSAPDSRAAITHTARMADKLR

As for `CC(C)[C@H](C(=O)O)[C@H](Cc1ccc(N[C@@H]2CCNC2)nc1)c1nnn[nH]1` [Example 124, (2S,3S)-2-isopropyl-4-(6-((R)-pyrrolidin-3-ylamino)pyridin-3-yl)-3-(1H-tetrazol-5-yl)butanoic acid], the IC50 (usually the concentration at which inhibition is half-maximal) was 15000 nM in test [1], 540 nM in test [2] and 59 nM in test [3]. In test [4], the “NDM1 EC30016 MITC95” value stood at 4.7 µM. The “VIM1 KP599644 MITC95” value in test [5] was 50 µM. Also, in test [6], the “IMP1 SM5741 MITC95” value is 100 µM.
As to `CC(C)[C@H](C(=O)O)[C@H](Cc1ccc(N)cn1)c1nnn[nH]1` [Example 125, (2S,3S)-4-(5-aminopyridin-2-yl)-2-isopropyl-3-(1H-tetrazol-5-yl)butanoic acid], the IC50 came to 12000 nM in test [1], 170 nM in test [2] and 240 nM in test [3]. Moreover, the “NDM1 EC30016 MITC95” value in test [4] came out at 0.39 µM. Moreover, the “VIM1 KP599644 MITC95” value in test [5] worked out at 12.5 µM. Besides, in test [6], the “IMP1 SM5741 MITC95” value is 75 µM.
Take `CC(C)[C@H](C(=O)O)[C@H](Cc1ccc(N2CCC[C@H]2CO)nc1)c1nnn[nH]1` [Example 126, (2S,3S)-4-(6-((S)-2-(hydroxymethyl)pyrrolidin-1-yl)pyridin-3-yl)-2-isopropyl-3-(1H-tetrazol-5-yl)butanoic acid]: the IC50 in test [1] turned out to be 530 nM; in test [2], 63 nM; in test [3], 34 nM. In addition, the “NDM1 EC30016 MITC95” value in test [4] came to 6.2 µM. Besides, the “VIM1 KP599644 MITC95” value in test [5] turned out to be 50 µM. The “IMP1 SM5741 MITC95” value in test [6] was 25 µM.
`CC(C)[C@H](C(=O)O)[C@H](Cc1ccc(N2CCC[C@@H]2CO)nc1)c1nnn[nH]1` [Example 127, (2S,3S)-4-(6-((R)-2-(hydroxymethyl)pyrrolidin-1-yl)pyridin-3-yl)-2-isopropyl-3-(1H-tetrazol-5-yl)butanoic acid]: the IC50 came to 10000 nM in test [1], 320 nM in test [2] and 280 nM in test [3]. The “NDM1 EC30016 MITC95” value in test [4] came out at 12.5 µM. Also, the “VIM1 KP599644 MITC95” value in test [5] is 200 µM. Also, in test [6], the “IMP1 SM5741 MITC95” value came to 200 µM.
On to `CC(C)[C@H](C(=O)O)[C@H](Cc1cnc(N)nc1)c1nnn[nH]1` [Example 128, (2S,3S)-4-(2-aminopyrimidin-5-yl)-2-isopropyl-3-(1H-tetrazol-5-yl)butanoic acid], for which the half-inhibitory concentration (IC50) in test [1] is 16000 nM; in test [2], 150 nM; in test [3], 51 nM. The “NDM1 EC30016 MITC95” value in test [4] came out at 9.4 µM. Moreover, the “VIM1 KP599644 MITC95” value in test [5] amounted to 50 µM. The “IMP1 SM5741 MITC95” value in test [6] is greater than 200 µM.
With `CCC[C@H](C(=O)O)[C@H](Cc1ccc(NCCO)nc1)c1nnn[nH]1` [Example 129, (S)-2-((S)-2-(6-((2-hydroxyethyl)amino)pyridin-3-yl)-1-(1H-tetrazol-5-yl)ethyl)pentanoic acid], the half-maximal inhibitory concentration (IC50) in test [1] was found to be 830 nM; in test [2], 77 nM; in test [3], 5.6 nM. Further, the “NDM1 EC30016 MITC95” value in test [4] came out at 0.39 µM. Also, the “VIM1 KP599644 MITC95” value in test [5] came out at 9.4 µM. In addition, in test [6], the “IMP1 SM5741 MITC95” value was found to be 9.4 µM.
Consider `CCC[C@H](C(=O)O)[C@H](Cc1ccc(OCCN)nc1)c1nnn[nH]1` [Example 130, (S)-2-((S)-2-(6-(2-aminoethoxy)pyridin-3-yl)-1-(1H-tetrazol-5-yl)ethyl)pentanoic acid], for which the IC50 in test [1] stood at 8400 nM; in test [2], 900 nM; in test [3], 8.3 nM. In addition, the “NDM1 EC30016 MITC95” value in test [4] is 4.7 µM. The “VIM1 KP599644 MITC95” value in test [5] stood at 18.8 µM. Besides, the “IMP1 SM5741 MITC95” value in test [6] was determined as 50 µM.
As to `CCC[C@H](C(=O)O)[C@H](Cc1ccc(Oc2ccc(CN)cc2)nc1)c1nnn[nH]1` [Example 131, (S)-2-((S)-2-(6-(4-(aminomethyl)phenoxy)pyridin-3-yl)-1-(1H-tetrazol-5-yl)ethyl)pentanoic acid], the IC50 in test [1] came out at 200 nM; in test [2], 12 nM; in test [3], 1.9 nM. In test [4], the “NDM1 EC30016 MITC95” value turned out to be 0.78 µM. For the same molecule, the “VIM1 KP599644 MITC95” value in test [5] amounted to 9.4 µM. Also, the “IMP1 SM5741 MITC95” value in test [6] was 6.2 µM.
With `CCC[C@H](C(=O)O)[C@H](Cc1ccc(NCc2ccc(O)cc2)nc1)c1nnn[nH]1` [Example 132, (S)-2-((S)-2-(6-((4-hydroxybenzyl)amino)pyridin-3-yl)-1-(1H-tetrazol-5-yl)ethyl)pentanoic acid], the IC50 is 1500 nM in test [1], 160 nM in test [2] and 31 nM in test [3]. In addition, the “NDM1 EC30016 MITC95” value in test [4] stood at 9.4 µM. Moreover, the “VIM1 KP599644 MITC95” value in test [5] was 25 µM. In test [6], the “IMP1 SM5741 MITC95” value turned out to be 38 µM.
Regarding `CC(C)C[C@H](C(=O)O)[C@H](Cc1ccc2cc(NCCO)cnc2c1)c1nnn[nH]1` [Example 133, (S)-2-((S)-2-(3-((2-hydroxyethyl)amino)quinolin-7-yl)-1-(1H-tetrazol-5-yl)ethyl)-4-methylpentanoic acid], the figures for the IC50 in test [1], in test [2] and in test [3] were 79 nM, 12 nM and 1.6 nM, respectively. In addition, in test [4], the “NDM1 EC30016 MITC95” value is 25 µM. Besides, the “VIM1 KP599644 MITC95” value in test [5] stood at 75 µM. Moreover, in test [6], the “IMP1 SM5741 MITC95” value came to 6.2 µM.
For `CC(C)C[C@H](C(=O)O)[C@H](Cc1ccc(NCCO)nc1)c1nnn[nH]1` [Example 134, (S)-2-((S)-2-(6-((2-hydroxyethyl)amino)pyridin-3-yl)-1-(1H-tetrazol-5-yl)ethyl)-4-methylpentanoic acid], the IC50 in test [1] was determined as 230 nM; in test [2] it was 88 nM; in test [3], 6.6 nM. Also, in test [4], the “NDM1 EC30016 MITC95” value worked out at 0.78 µM. Also, the “VIM1 KP599644 MITC95” value in test [5] amounted to 18.8 µM. In addition, the “IMP1 SM5741 MITC95” value in test [6] was 4.7 µM.
As for `CC(C)C[C@H](C(=O)O)[C@H](Cc1ccc(OCCN)nc1)c1nnn[nH]1` [Example 135, (S)-2-((S)-2-(6-(2-aminoethoxy)pyridin-3-yl)-1-(1H-tetrazol-5-yl)ethyl)-4-methylpentanoic acid], the IC50 was determined as 1600 nM in test [1], 490 nM in test [2] and 6.1 nM in test [3]. In addition, the “NDM1 EC30016 MITC95” value in test [4] is 6.2 µM. In test [5], the “VIM1 KP599644 MITC95” value stood at 25 µM. The “IMP1 SM5741 MITC95” value in test [6] came to 25 µM.
Consider `CCC[C@H](C(=O)O)[C@H](Cc1ccc(NCCO)cn1)c1nnn[nH]1` [Example 136, (S)-2-((S)-2-(5-((2-hydroxyethyl)amino)pyridin-2-yl)-1-(1H-tetrazol-5-yl)ethyl)pentanoic acid], for which the half-maximal inhibitory concentration (IC50) amounted to 6800 nM in test [1], 340 nM in test [2] and 150 nM in test [3]. Besides, in test [4], the “NDM1 EC30016 MITC95” value came to 1.2 µM. In test [5], the “VIM1 KP599644 MITC95” value stood at 18.8 µM. The “IMP1 SM5741 MITC95” value in test [6] was 100 µM.
As for `CC(C)C[C@H](C(=O)O)[C@H](Cc1cnc(NCCO)s1)c1nnn[nH]1` [Example 137, (S)-2-((S)-2-(2-((2-hydroxyethyl)amino)thiazol-5-yl)-1-(1H-tetrazol-5-yl)ethyl)-4-methylpentanoic acid], the IC50 in test [1] is 300 nM; in test [2] it was 110 nM; in test [3] it was 3.5 nM. Besides, in test [4], the “NDM1 EC30016 MITC95” value was determined as 6.2 µM. Moreover, the “VIM1 KP599644 MITC95” value in test [5] came to 37 µM. In addition, the “IMP1 SM5741 MITC95” value in test [6] turned out to be 12.5 µM.
As to `CC(C)[C@H](C(=O)O)[C@H](Cc1cccc(NCCO)n1)c1nnn[nH]1` [Example 138, (2S,3S)-4-(6-((2-hydroxyethyl)amino)pyridin-2-yl)-2-isopropyl-3-(1H-tetrazol-5-yl)butanoic acid], the 50% inhibitory concentration (IC50) in test [1] was greater than 20000 nM; in test [2], 490 nM; in test [3], 670 nM. Moreover, the “NDM1 EC30016 MITC95” value in test [4] is 3.1 µM. Also, in test [5], the “VIM1 KP599644 MITC95” value was determined as 75 µM. Besides, in test [6], the “IMP1 SM5741 MITC95” value is greater than 200 µM.
On to `CC(C)[C@H](C(=O)O)[C@H](Cc1ccc(NCCO)cn1)c1nnn[nH]1` [Example 139, (2S,3S)-4-(5-((2-hydroxyethyl)amino)pyridin-2-yl)-2-isopropyl-3-(1H-tetrazol-5-yl)butanoic acid], for which the IC50 is 1900 nM in test [1], 56 nM in test [2] and 34 nM in test [3]. Moreover, the “NDM1 EC30016 MITC95” value in test [4] worked out at 0.39 µM. Further, in test [5], the “VIM1 KP599644 MITC95” value came out at 12.5 µM. Moreover, the “IMP1 SM5741 MITC95” value in test [6] was found to be 38 µM.
Regarding `CC(C)[C@H](C(=O)O)[C@H](Cc1ccc(NCCN)nc1)c1nnn[nH]1` [Example 140, (2S,3S)-4-(6-((2-aminoethyl)amino)pyridin-3-yl)-2-isopropyl-3-(1H-tetrazol-5-yl)butanoic acid], the figures for the IC50 in test [1], in test [2] and in test [3] were greater than 20000 nM, 320 nM and 8.7 nM, respectively. For the same molecule, the “NDM1 EC30016 MITC95” value in test [4] worked out at 1.6 µM. In addition, the “VIM1 KP599644 MITC95” value in test [5] is 12.5 µM. For the same molecule, the “IMP1 SM5741 MITC95” value in test [6] came to 75 µM.
